What was measured:
[1] = 101.33 kPa, Liquid
[2] = xn = mol fraction of the nth substance listed; conditions: 101.3 kPa, Liquid

CCOC(=O)OCC [diethyl carbonate]
[1]
Conditions | mass density [kg/m3]
288.15 K | 980.29
293.15 K | 974.57
298.15 K | 969.07
303.15 K | 963.6
308.15 K | 957.98
318.15 K | 947.67
328.15 K | 935.12

CCOC(=O)OCC [diethyl carbonate] + CCCCCCCCCCCC
[2]
Conditions | mass density [kg/m3]
288.15 K, x1 = 0.1242 | 766.85
288.15 K, x1 = 0.2013 | 776.91
288.15 K, x1 = 0.2481 | 783.48
288.15 K, x1 = 0.309 | 792.61
288.15 K, x1 = 0.4053 | 808.61
288.15 K, x1 = 0.5069 | 827.83
288.15 K, x1 = 0.603 | 848.75
288.15 K, x1 = 0.7026 | 873.85
288.15 K, x1 = 0.8014 | 903.1
288.15 K, x1 = 0.8997 | 937.64
288.15 K, x1 = 0.9501 | 958.03
293.15 K, x1 = 0.1018 | 760.24
293.15 K, x1 = 0.2018 | 772.97
293.15 K, x1 = 0.2513 | 779.88
293.15 K, x1 = 0.3056 | 787.96
293.15 K, x1 = 0.4094 | 805.05
293.15 K, x1 = 0.5064 | 823.29
293.15 K, x1 = 0.604 | 844.35
293.15 K, x1 = 0.7024 | 868.92
293.15 K, x1 = 0.8026 | 898.28
293.15 K, x1 = 0.9022 | 933.11
293.15 K, x1 = 0.9498 | 952.23
298.15 K, x1 = 0.1025 | 756.57
298.15 K, x1 = 0.2042 | 769.39
298.15 K, x1 = 0.2522 | 776.01
298.15 K, x1 = 0.3009 | 783.17
298.15 K, x1 = 0.4041 | 799.89
298.15 K, x1 = 0.5027 | 818.2
298.15 K, x1 = 0.6059 | 840.28
298.15 K, x1 = 0.7074 | 865.61
298.15 K, x1 = 0.799 | 892.28
298.15 K, x1 = 0.8994 | 926.96
298.15 K, x1 = 0.9513 | 947.6
303.15 K, x1 = 0.1013 | 752.68
303.15 K, x1 = 0.2027 | 765.3
303.15 K, x1 = 0.2521 | 772.06
303.15 K, x1 = 0.3003 | 779.07
303.15 K, x1 = 0.4041 | 795.74
303.15 K, x1 = 0.4993 | 813.2
303.15 K, x1 = 0.605 | 835.58
303.15 K, x1 = 0.7035 | 859.82
303.15 K, x1 = 0.7993 | 887.45
303.15 K, x1 = 0.8999 | 921.93
303.15 K, x1 = 0.9508 | 942.05
308.15 K, x1 = 0.1049 | 749.28
308.15 K, x1 = 0.2059 | 761.76
308.15 K, x1 = 0.2441 | 766.93
308.15 K, x1 = 0.3043 | 775.59
308.15 K, x1 = 0.4026 | 791.26
308.15 K, x1 = 0.5062 | 810.2
308.15 K, x1 = 0.6032 | 830.59
308.15 K, x1 = 0.7045 | 855.29
308.15 K, x1 = 0.8015 | 883.09
308.15 K, x1 = 0.9005 | 916.79
308.15 K, x1 = 0.9507 | 936.48
318.15 K, x1 = 0.1041 | 741.75
318.15 K, x1 = 0.1989 | 753.22
318.15 K, x1 = 0.2492 | 759.89
318.15 K, x1 = 0.3079 | 768.25
318.15 K, x1 = 0.4075 | 783.98
318.15 K, x1 = 0.5 | 800.6
318.15 K, x1 = 0.6026 | 821.73
318.15 K, x1 = 0.7001 | 845.05
318.15 K, x1 = 0.7995 | 872.99
318.15 K, x1 = 0.8973 | 905.76
318.15 K, x1 = 0.9485 | 925.55
328.15 K, x1 = 0.1023 | 733.88
328.15 K, x1 = 0.2027 | 745.71
328.15 K, x1 = 0.2498 | 751.81
328.15 K, x1 = 0.3042 | 759.33
328.15 K, x1 = 0.3984 | 773.69
328.15 K, x1 = 0.5099 | 793.25
328.15 K, x1 = 0.6045 | 812.43
328.15 K, x1 = 0.7037 | 835.73
328.15 K, x1 = 0.7992 | 862.04
328.15 K, x1 = 0.8987 | 894.71
328.15 K, x1 = 0.9506 | 914.36

COC(=O)OC [dimethyl carbonate]
[1]
Conditions | mass density [kg/m3]
288.15 K | 1076.43
293.15 K | 1069.95
298.15 K | 1063.26
303.15 K | 1056.61
308.15 K | 1050.01
318.15 K | 1036.65
328.15 K | 1022.92

CCCCCCCCCCCC [dodecane]
[1]
Conditions | mass density [kg/m3]
288.15 K | 752.44
293.15 K | 748.8
298.15 K | 745.19
303.15 K | 741.57
308.15 K | 737.93
318.15 K | 730.7
328.15 K | 723.32

CCCCCCCCCCCC [dodecane] + COC(=O)OC
[2]
Conditions | mass density [kg/m3]
288.15 K, x2 = 0.1 | 763.29
288.15 K, x2 = 0.1984 | 775.97
288.15 K, x2 = 0.2519 | 783.82
288.15 K, x2 = 0.2998 | 791.48
288.15 K, x2 = 0.3943 | 808.72
288.15 K, x2 = 0.9498 | 1031.65
293.15 K, x2 = 0.0994 | 759.42
293.15 K, x2 = 0.2008 | 772.33
293.15 K, x2 = 0.2474 | 779.08
293.15 K, x2 = 0.2967 | 786.85
293.15 K, x2 = 0.3962 | 804.76
293.15 K, x2 = 0.9006 | 989.35
293.15 K, x2 = 0.9507 | 1026.33
298.15 K, x2 = 0.1015 | 755.81
298.15 K, x2 = 0.1968 | 767.75
298.15 K, x2 = 0.2518 | 775.63
298.15 K, x2 = 0.3057 | 784.12
298.15 K, x2 = 0.4019 | 801.57
298.15 K, x2 = 0.4976 | 822.41
298.15 K, x2 = 0.5975 | 849.03
298.15 K, x2 = 0.7026 | 884.3
298.15 K, x2 = 0.7991 | 925.9
298.15 K, x2 = 0.9011 | 984.3
298.15 K, x2 = 0.9512 | 1020.8
303.15 K, x2 = 0.0995 | 751.67
303.15 K, x2 = 0.195 | 763.42
303.15 K, x2 = 0.2498 | 771.18
303.15 K, x2 = 0.3315 | 784.26
303.15 K, x2 = 0.3999 | 796.8
303.15 K, x2 = 0.4997 | 818.35
303.15 K, x2 = 0.6015 | 845.3
303.15 K, x2 = 0.6974 | 876.92
303.15 K, x2 = 0.798 | 919.35
303.15 K, x2 = 0.8988 | 976.31
303.15 K, x2 = 0.9497 | 1012.95
308.15 K, x2 = 0.0998 | 747.85
308.15 K, x2 = 0.1992 | 759.93
308.15 K, x2 = 0.2486 | 766.84
308.15 K, x2 = 0.2938 | 773.75
308.15 K, x2 = 0.4017 | 792.74
308.15 K, x2 = 0.5014 | 814.12
308.15 K, x2 = 0.5995 | 839.81
308.15 K, x2 = 0.6978 | 871.92
308.15 K, x2 = 0.7983 | 914.04
308.15 K, x2 = 0.9004 | 971.25
308.15 K, x2 = 0.9494 | 1006.38
318.15 K, x2 = 0.1003 | 740.31
318.15 K, x2 = 0.2044 | 752.75
318.15 K, x2 = 0.251 | 759.14
318.15 K, x2 = 0.3042 | 767.18
318.15 K, x2 = 0.401 | 783.99
318.15 K, x2 = 0.4988 | 804.44
318.15 K, x2 = 0.6028 | 831.06
318.15 K, x2 = 0.6973 | 861.26
318.15 K, x2 = 0.8023 | 904.51
318.15 K, x2 = 0.8976 | 956.98
318.15 K, x2 = 0.9497 | 993.69
328.15 K, x2 = 0.0924 | 731.92
328.15 K, x2 = 0.2 | 744.23
328.15 K, x2 = 0.25 | 750.88
328.15 K, x2 = 0.3 | 758.18
328.15 K, x2 = 0.4007 | 775.11
328.15 K, x2 = 0.5003 | 795.39
328.15 K, x2 = 0.6158 | 824.8
328.15 K, x2 = 0.7057 | 853.75
328.15 K, x2 = 0.7855 | 885.61
328.15 K, x2 = 0.8981 | 945.23
328.15 K, x2 = 0.9483 | 979.79
